Columns and labels:
Format in all cases: cell-based
ERβ = target: T1, ERβ (Homo sapiens, UniProt Q92731); experiment: ERβ luciferase reporter gene transcription activation in transfected Hela cells; settings: for ERβ (% of the control) mean ± S.D. / ERβ (% of estradiol): Hela cells; for ERβ (% of the control) mean ± S.D.: 24 h; for ERβ (% of estradiol): estradiol at 10^−8M
T1 construct: expressed in transfected cells; host or cells: Hela cells (ER expression free)
Source text: (§1) Actually, estrogens show their biological activity by regulating estrogen responding genetic transcription.
(§2) Formulation of sample solutions of catechin, (−)epicatechin-3-O-gallate, naringenin-4′-O-glucoside, phlorizin, emodin, chrysophanol (separately obtained from Example 1):
(§3) Catechin, (−)epicatechin-3-O-gallate, naringenin-4′-O-glucoside, phlorizin, emodin, chrysophanol in corresponding weights were separately weighed precisely, than added with DMSO for dissolution, the corresponding sample solution high dose groups (10 μM or 1 μM), were diluted in certain times to separately obtain low dose groups (1 μM to 0.001 μM).
(§4) Under condition of 37° C. and 5% CO2, Hela cells were cultured in phenol red-free high sugar DMEM culture medium containing 10% calf serum in incubator, the cells were spread in 60% density on 96-well plate when cell density was about 90%, each well was added with 150 ul of phenol red-free DMEM culture medium containing 10% serum, cultivation was performed overnight. To each well of the 96-well plate, 100 ul of serum-free DMEM culture medium and 0.4 μg plasmid (ptk-ERE-luc 2 μg, tk-Renila 1 μg, ERα or ERβ 1 μg) were used for transfection. After 6 h of transfection, each well was added with 150 ul of serum-free phenol red-free DMEM culture medium. Three wells were selected form each group, added with 10^−8M estradiol E2, and substance to be tested in different concentrations, 15 ul/well (sample 4-5 concentration gradient groups), continuously cultured under condition of 37° C., 5% CO2 for 24 h. After 24 h, each well was added with 80 μl of cell disruption solution, and the cells were subjected to freeze thawing once to be sufficiently disrupted. As for the cell lysis solution of each well, its activities to firefly luciferase and Renila luciferase were separately measured.

estrogen receptor = experiment: Estrogen receptor activation test: overall estrogen activity and ERβ versus ERα comparison; settings: for ERβ/ERα (both % of estradiol at 10^−8M): Hela cells; for estrogen activity / estrogen receptor activation (in words): estradiol as positive control; for selectivity to receptor subtypes (ERα vs ERβ): result in words
Method: as §1, §4

ERα = target: T2, ERα (Homo sapiens, UniProt P03372); experiment: ERα luciferase reporter gene transcription activation in transfected Hela cells; settings: for ERα (% of the control) mean ± S.D. / ERα (% of estradiol): Hela cells; for ERα (% of the control) mean ± S.D.: 24 h; for ERα (% of estradiol): estradiol at 10^−8M
T2 construct: expressed in transfected cells; host or cells: Hela cells (ER expression free)
T2 sequence (P03372 1-595): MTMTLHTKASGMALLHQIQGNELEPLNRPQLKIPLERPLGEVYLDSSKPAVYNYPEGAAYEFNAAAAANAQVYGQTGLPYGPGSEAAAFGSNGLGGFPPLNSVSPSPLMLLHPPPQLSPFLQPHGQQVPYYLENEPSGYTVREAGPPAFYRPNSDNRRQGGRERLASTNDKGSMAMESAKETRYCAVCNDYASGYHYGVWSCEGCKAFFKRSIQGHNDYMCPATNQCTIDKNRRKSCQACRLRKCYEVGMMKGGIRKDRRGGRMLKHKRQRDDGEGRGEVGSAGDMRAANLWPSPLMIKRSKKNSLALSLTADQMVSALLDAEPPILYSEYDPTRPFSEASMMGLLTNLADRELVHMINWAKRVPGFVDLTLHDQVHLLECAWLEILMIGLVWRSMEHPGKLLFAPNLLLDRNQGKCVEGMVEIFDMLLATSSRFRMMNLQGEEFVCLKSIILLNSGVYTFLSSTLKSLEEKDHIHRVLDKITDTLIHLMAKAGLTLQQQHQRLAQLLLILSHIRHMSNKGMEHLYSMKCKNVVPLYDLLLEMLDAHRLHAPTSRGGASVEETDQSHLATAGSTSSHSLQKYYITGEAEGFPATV
Source text: as §1, §2, §3, §4

T1 sequence (Q92731 whole entry): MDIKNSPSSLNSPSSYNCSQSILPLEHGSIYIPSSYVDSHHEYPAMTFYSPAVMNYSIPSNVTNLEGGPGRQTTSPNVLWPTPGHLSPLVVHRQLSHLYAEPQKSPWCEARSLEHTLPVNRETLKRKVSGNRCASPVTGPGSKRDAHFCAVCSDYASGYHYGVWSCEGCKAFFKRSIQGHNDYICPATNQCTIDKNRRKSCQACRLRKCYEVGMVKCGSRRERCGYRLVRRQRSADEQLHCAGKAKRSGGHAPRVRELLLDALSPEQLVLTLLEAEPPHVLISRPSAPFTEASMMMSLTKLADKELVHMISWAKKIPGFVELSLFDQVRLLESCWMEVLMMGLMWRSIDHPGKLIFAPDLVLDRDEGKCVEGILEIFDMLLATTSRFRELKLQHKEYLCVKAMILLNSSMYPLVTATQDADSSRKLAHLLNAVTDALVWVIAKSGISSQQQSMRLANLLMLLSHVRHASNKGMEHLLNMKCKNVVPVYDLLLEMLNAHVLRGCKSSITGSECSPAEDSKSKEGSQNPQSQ

O=C(O[C@@H]1Cc2c(O)cc(O)cc2O[C@@H]1c1ccc(O)c(O)c1)c1cc(O)c(O)c(O)c1 [(−)Epicatechin-3-O-gallate, (−)epicatechin-3-O-gallate]
ERβ (% of the control) mean ± S.D. (ERβ; 10^−5 M): 137.80 ± 15.93 % of the control
ERβ (% of estradiol) (ERβ; 10^−5 M): (75.87) % of estradiol
ERβ (% of the control) mean ± S.D. (ERβ; 10^−6 M): 148.13 ± 4.22 % of the control
ERβ (% of estradiol) (ERβ; 10^−6 M): (81.56) % of estradiol
ERβ (% of the control) mean ± S.D. (ERβ; 10^−7 M): 159.55 ± 28.00 % of the control
ERβ (% of estradiol) (ERβ; 10^−7 M): (87.84) % of estradiol
ERβ (% of the control) mean ± S.D. (ERβ; 10^−8 M): 131.16 ± 15.95 % of the control
ERβ (% of estradiol) (ERβ; 10^−8 M): (77.72) % of estradiol
ERβ (% of the control) mean ± S.D. (ERβ; 10^−9 M): 97.75 ± 17.66 % of the control
ERβ (% of estradiol) (ERβ; 10^−9 M): (53.82) % of estradiol
concentration at which the transcriptional activity of ERβ is agonized (ERβ; luciferase reporter gene): 10^−8-10^−5 M
concentration of the highest ERβ transcription activity (ERβ; luciferase reporter gene): 10^−7 M
ERβ/ERα (both % of estradiol at 10^−8M) (estrogen receptor; sample 10^−5 M): 0.94
ERβ/ERα (both % of estradiol at 10^−8M) (estrogen receptor; sample 10^−6 M): 0.90
ERβ/ERα (both % of estradiol at 10^−8M) (estrogen receptor; sample 10^−7 M): 0.93
ERβ/ERα (both % of estradiol at 10^−8M) (estrogen receptor; sample 10^−8 M): 0.97
ERβ/ERα (both % of estradiol at 10^−8M) (estrogen receptor; sample 10^−9 M): 0.94
estrogen activity / estrogen receptor activation (in words) (estrogen receptor; listed as (−) epicatechin-3-O-gallate): show relevance to estrogen receptor activation
estrogen activity / estrogen receptor activation (in words) (estrogen receptor; listed as (−)epicatechin-3-O-gallate): potent activity of estrogen
selectivity to receptor subtypes (ERα vs ERβ) (estrogen receptor): a higher selectivity to ERα than ERβ
ERα (% of the control) mean ± S.D. (ERα; 10^−5 M): 171.88 ± 22.57 % of the control
ERα (% of estradiol) (ERα; 10^−5 M): (80.79) % of estradiol
ERα (% of the control) mean ± S.D. (ERα; 10^−6 M): 192.40 ± 27.72 % of the control
ERα (% of estradiol) (ERα; 10^−6 M): (90.43) % of estradiol
ERα (% of the control) mean ± S.D. (ERα; 10^−7 M): 200.50 ± 13.72 % of the control
ERα (% of estradiol) (ERα; 10^−7 M): (94.24) % of estradiol
ERα (% of the control) mean ± S.D. (ERα; 10^−8 M): 170.00 ± 13.87 % of the control
ERα (% of estradiol) (ERα; 10^−8 M): (79.90) % of estradiol
ERα (% of the control) mean ± S.D. (ERα; 10^−9 M): 121.95 ± 10.76 % of the control
ERα (% of estradiol) (ERα; 10^−9 M): (57.32) % of estradiol
concentration at which the transcriptional activity of ERα is agonized (ERα; luciferase reporter gene): 10^−8-10^−5 M
concentration of the highest ERα transcription activity (ERα; luciferase reporter gene): 10^−7 M

Cc1cc(O)c2c(c1)C(=O)c1cccc(O)c1C2=O [Chrysophanol, chrysophanol]
ERβ (% of the control) mean ± S.D. (ERβ; 10^−6 M): 120.43 ± 12.98 % of the control
ERβ (% of estradiol) (ERβ; 10^−6 M): (61.26) % of estradiol
ERβ (% of the control) mean ± S.D. (ERβ; 10^−7 M): 83.12 ± 4.78 % of the control
ERβ (% of estradiol) (ERβ; 10^−7 M): (42.28) % of estradiol
ERβ (% of the control) mean ± S.D. (ERβ; 10^−8 M): 76.85 ± 8.82 % of the control
ERβ (% of estradiol) (ERβ; 10^−8 M): (39.09) % of estradiol
ERβ (% of the control) mean ± S.D. (ERβ; 10^−9 M): 86.99 ± 23.16 % of the control
ERβ (% of estradiol) (ERβ; 10^−9 M): (44.25) % of estradiol
ERβ/ERα (both % of estradiol at 10^−8M) (estrogen receptor; sample 10^−6 M): 1.19
ERβ/ERα (both % of estradiol at 10^−8M) (estrogen receptor; sample 10^−7 M): 1.03
ERβ/ERα (both % of estradiol at 10^−8M) (estrogen receptor; sample 10^−8 M): 1.16
ERβ/ERα (both % of estradiol at 10^−8M) (estrogen receptor; sample 10^−9 M): 1.25
ERα (% of the control) mean ± S.D. (ERα; 10^−6 M): 122.89 ± 8.94 % of the control
ERα (% of estradiol) (ERα; 10^−6 M): (51.51) % of estradiol
ERα (% of the control) mean ± S.D. (ERα; 10^−7 M): 97.77 ± 8.47 % of the control
ERα (% of estradiol) (ERα; 10^−7 M): (40.98) % of estradiol
ERα (% of the control) mean ± S.D. (ERα; 10^−8 M): 80.15 ± 13.88 % of the control
ERα (% of estradiol) (ERα; 10^−8 M): (33.59) % of estradiol
ERα (% of the control) mean ± S.D. (ERα; 10^−9 M): 84.53 ± 14.21 % of the control
ERα (% of estradiol) (ERα; 10^−9 M): (35.43) % of estradiol

Cc1cc(O)c2c(c1)C(=O)c1cc(O)cc(O)c1C2=O [Emodin, emodin]
ERβ (% of the control) mean ± S.D. (ERβ; 10^−6 M): 145.21 ± 8.06 % of the control
ERβ (% of estradiol) (ERβ; 10^−6 M): (65.63) % of estradiol
ERβ (% of the control) mean ± S.D. (ERβ; 10^−7 M): 106.60 ± 10.76 % of the control
ERβ (% of estradiol) (ERβ; 10^−7 M): (48.18) % of estradiol
ERβ (% of the control) mean ± S.D. (ERβ; 10^−8 M): 104.92 ± 9.08 % of the control
ERβ (% of estradiol) (ERβ; 10^−8 M): (47.42) % of estradiol
ERβ (% of the control) mean ± S.D. (ERβ; 10^−9 M): 104.68 ± 13.96 % of the control
ERβ (% of estradiol) (ERβ; 10^−9 M): 47.31 % of estradiol
concentration at which the transcriptional activity of ERβ is agonized (ERβ; luciferase reporter gene): 10^−6 M
ERβ/ERα (both % of estradiol at 10^−8M) (estrogen receptor; sample 10^−6 M): 1.03
ERβ/ERα (both % of estradiol at 10^−8M) (estrogen receptor; sample 10^−7 M): 1.00
ERβ/ERα (both % of estradiol at 10^−8M) (estrogen receptor; sample 10^−8 M): 1.00
ERβ/ERα (both % of estradiol at 10^−8M) (estrogen receptor; sample 10^−9 M): 1.07
estrogen activity / estrogen receptor activation (in words) (estrogen receptor): show relevance to estrogen receptor activation
selectivity to receptor subtypes (ERα vs ERβ) (estrogen receptor): no receptor selectivity
ERα (% of the control) mean ± S.D. (ERα; 10^−6 M): 146.40 ± 18.07 % of the control
ERα (% of estradiol) (ERα; 10^−6 M): (64.01) % of estradiol
ERα (% of the control) mean ± S.D. (ERα; 10^−7 M): 109.96 ± 11.33 % of the control
ERα (% of estradiol) (ERα; 10^−7 M): (48.07) % of estradiol
ERα (% of the control) mean ± S.D. (ERα; 10^−8 M): 108.48 ± 27.45 % of the control
ERα (% of estradiol) (ERα; 10^−8 M): (47.43) % of estradiol
ERα (% of the control) mean ± S.D. (ERα; 10^−9 M): 101.27 ± 15.90 % of the control
ERα (% of estradiol) (ERα; 10^−9 M): (44.27) % of estradiol
concentration at which the transcriptional activity of ERα is agonized (ERα; luciferase reporter gene): 10^−6 M

Reference: patent US20130288989A1, “NEW USE OF CHEMICAL INGREDIENTS IN CYNOMORIUM AS PHYTOESTROGEN” (TIANJIN UNIVERSITY OF TRADITIONAL CHINESE MEDICINE, priority 2010, published 2013)
